Experimental data published in patent publication US20260355199A1, “COMPOSITIONS AND METHODS FOR TREATING OR PREVENTING NONALCOHOLIC STEATOHEPATITIS (NASH), ANOREXIA, DEPRESSION, ENDOMETRIOSIS, AND OTHER DISEASES OR DISORDERS” (priority 2022, published 2026).
Entries after “also recorded” stand apart in the source; their conditions may differ.

Experiments:
[1] = tested on: activity-based anorexia (ABA) mice; details: temporal (3 days); cited from earlier work
TET2 = TET2 expression in GT1-7 cells; type: cell-based, mouse; details: 10 μM, 6 h
Method: For Bobcat339 treatment (FIG. 15A and FIG. 15B), GT1-7 cells grown in 24-well plates at 2×10^5 cells/well were incubated with vehicle or Bobcat339 at a final concentration of 10 μM for 6 h, followed by RNA and protein extractions. For TET3 protein stability assay (FIG. 15B), GT1-7 cells in 24-well plates at 2×10^5 cells/well were incubated with vehicle or Bobcat339 at a final concentration of 10 μM for 3 hours, followed by addition of cycloheximide (CHX, Cell Signaling, 2112) at a final concentration of […] in the presence of 10 μM of Bobcat339. Proteins were harvested at 0, 1, 2, and 3 hours after addition of CHX. For TET3 expression restoration experiments (FIG. 15C and FIG. 15D), GT1-7 or SH-SY5Y cells seeded in 24-well plates at 2×10^5 cells/well were infected with Ad-GFP or Ad-TET3 at 4000 gc/cell. Following 16 h of infection, vehicle or Bobcat339 were added at a final concentration of 10 μM. Protein and RNA were isolated 48 h later and analyzed.
GT1-7 and SH-SY5Y cells in 24-well plates were collected by manual scraping in 2×SDS-sample buffer containing 1× Phosphatase inhibitor cocktail (Thermo, 78427) and 1× Protease inhibitor cocktail (Thermo, 78438), followed by heating at 100 °C for 5 min with occasional vortexing. […]

Agrp promoter = assay: hMeDIP-qPCR (5hmC) at the Agrp promoter in mouse ARC; type: in vivo; details: leptin- vs. saline-treated
Method: To assess leptin effects on suppression of hunger-induced appetite, female Cas9+ mice injected with AAV or AAV-sgTet3 bilaterally into the ARC were fasted overnight for 22 h. On the second day, mouse leptin (L3772-1MG, Sigma Aldrich) was administrated at 5 mg/kg intraperitoneally at 10:00 and pre-weighed food was placed in the cage and monitored for the following 24 h. For ChIP studies, Cas9+ mice injected with AAV or AAVsgTet3 bilaterally into the ARC were fasted overnight for 22 h. On the second day, saline or leptin (5 mg/kg) was administrated intraperitoneally at 10:00. Two hours later, ARCs were isolated for ChIP-qPCR analysis. To examine leptin-induced protein-protein interactions, Cas9+ mice were fasted overnight for 22 h. […]
The experiments were carried out using the EpiQuik hMeDIP Kit (P-1038-48, Epigentek) according to the manufacturer's instructions. […] Sheared DNA fragments (ranged in size from 200-600 bps as assessed by agarose gel electrophoresis) were immunoprecipitated using the 5hmC rabbit polyclonal antibody from the kit. qPCR was performed in a 25 μl reaction containing 2.5 μl of the eluted DNA using iTAC SYBGreen in a Bio-Rad iCycler. The relative enrichments (after normalization against control IgG) of the indicated DNA regions were calculated using the Percent Input Method according to the manufacturer's instructions.

Tet3 and Agrp = Tet3 and Agrp expression in leptin-treated GT1-7 cells; type: cell-based, mouse
Method: Mouse GT1-7 hypothalamic neuronal cell line (Sigma-Aldrich, SCC116), human SH-SY5Y neuronal blastoma cell line (ATCC, CRL-2266), and embryonic mouse hypothalamus cell line N11 (mHypoE-N11) (Cedarlane, CLU107) were purchased and cultured according to the manufacturers' instructions. For siRNA transfection in a 24-well plate scale, cells were seeded at a density of 2×10^5 cells/well the day before transfection. To prepare siRNA transfection solution for each well of cells, 5 pmol of NT siRNA (non-targeting control siRNA, AM4636, Ambion), Tet3 siRNA (siRNA specifically targeting mouse Tet3, 4390815/s101483, Ambion), or TET3 siRNA (siRNA specifically targeting human TET3, 4392420/s47238, Ambion) (Cao et al., 2019, Oncogene, 38:5356-5366; Xu et al., 2020, Cell Rep., 30:1310-1318) were mixed with 25 μl of OPTI-MEM (Gibco, 31985-070) by gentle pipetting (Cao, T. et al., 2019, Oncogene, 38:5356-5366; Xu, Y. et al., 2020, Cell Reports, 30:1310-1318 e5). In parallel, 1.5 μl of Lipofectamine RNAiMAX (Invitrogen, 13778-150) was mixed with 25 μl of OPTI-MEM by gentle pipetting. Following 5 min of incubation at room temperature, the resulting 50 μl of transfection solution was added to one well of cells containing 1 ml culture media. […]

Row | Molecule | food intake [1] | TET2 expression (TET2) | 5hmC in the Agrp promoter (Agrp promoter) | Tet3 expression (Tet3 and Agrp; leptin 1×10^−8 M vs. 1×10^−10 M) | Agrp expression in response to increased leptin (Tet3 and Agrp; with TET3 knockdown)
1 | Nc1nc(=O)n(-c2cccc(-c3ccccc3)c2)cc1Cl [Bobcat339, 4-Amino-1-[1,1′-biphenyl]-3-yl-5-chloro-2(1H)-pyrimidinone] | increase food intake | did not affect TET2 expression |  |  | 
2 | leptin: adipose hormone; mouse leptin L3772-1MG or human leptin L4146-1MG, Sigma Aldrich |  |  | an increase in 5hmC in the Agrp promoter | a positive effect on Tet3 expression; also recorded: upregulated TET3 | no longer decreased in response to increased leptin
